Test results taken from PubChem BioAssay (NCI).
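Exposure lasted 48 hours, with cells grown in 96-well plates and compounds tested at five concentrations. At the TGI there is no net growth.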

Assays:
Assay in all cases: NCI anticancer screen, dose series, 48 h
[1] = system: HT29 colon
[2] = system: SNB-19 CNS
[3] = system: LOX IMVI melanoma
[4] = system: SW-620 colon
[5] = system: UACC-257 melanoma
[6] = system: CCRF-CEM leukemia
[7] = system: HCT-116 colon
[8] = system: SN12C renal
[9] = system: SK-MEL-2 melanoma
[10] = system: MDA-MB-231 breast
[11] = system: SF-295 CNS
[12] = system: U251 CNS
[13] = system: 786-0 renal
[14] = system: MOLT-4 leukemia
[15] = system: NCI-H522 lung
[16] = system: NCI-H23 lung
[17] = system: HOP-92 NSCLC
[18] = system: NCI-H226 lung
[19] = system: OVCAR-5 ovarian
[20] = system: M14 melanoma
[21] = system: IGROV1 ovarian
[22] = system: OVCAR-4 ovarian
[23] = system: PC-3 prostate
[24] = system: KM12 colon
[25] = system: SF-539 CNS
[26] = system: SK-MEL-5 melanoma
[27] = system: CAKI-1 renal
[28] = system: SNB-75 CNS
[29] = system: DU-145 prostate
[30] = system: SK-MEL-28 melanoma
[31] = system: EKVX NSCLC
[32] = system: A549 NSCLC
[33] = system: NCI/ADR-RES ovarian
[34] = system: MALME-3M melanoma
[35] = system: K-562 leukemia
[36] = system: HOP-62 NSCLC
[37] = system: OVCAR-8 ovarian
[38] = system: SF-268 CNS
[39] = system: HCC-2998 colon
[40] = system: COLO 205 colon
[41] = system: NCI-H460 lung
[42] = system: MDA-MB-435
[43] = system: RPMI-8226 leukemia
[44] = system: BT-549 breast
[45] = system: MCF7 breast
[46] = system: SR leukemia
[47] = system: ACHN renal
[48] = system: HL-60(TB) leukemia

Measured: TGI

CN(C)CCCNC(=O)c1cc(NC(=O)c2cc(NC(=O)[C@@H]3C[C@H]3C(=O)Nc3cc(C(=O)Nc4cc(C(=O)NCCCN(C)C)n(C)c4)n(C)c3)cn2C)cn1C
> 100 µM: all assays above
